Laboratory results published in the supplement of paper PMC10307832.

Columns and labels:
Assay in all cases: relative viability (nuclei count vs DMSO), 5 days (fraction); higher = more cells survive
Tipifarnib + Luminespib = compound: Cn1cncc1[C@@](N)(c1ccc(Cl)cc1)c1ccc2c(c1)c(-c1cccc(Cl)c1)cc(=O)n2C [Tipifarnib] + CCNC(=O)c1noc(-c2cc(C(C)C)c(O)cc2O)c1-c1ccc(CN2CCOCC2)cc1 [Luminespib] (partner 0.01 µM)
Summary of the method: (§1)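 Lung cancer cell lines in 1536-well plates were dosed by pin tool the day after seeding, either with one drug alone or with a fixed anchor-drug dose plus five library-drug doses (not always all listed) in √10 steps. After 5 days, cells were fixed and their nuclei stained in one step (final 0.05% Triton X-100, 1% formaldehyde, 1 ug/ml Hoechst), then counted on 4× images. Relative viability is the nuclei count in treated wells divided by that in vehicle wells. Values are medians of duplicate plates.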

Tipifarnib + OSI-027 = compound: Cn1cncc1[C@@](N)(c1ccc(Cl)cc1)c1ccc2c(c1)c(-c1cccc(Cl)c1)cc(=O)n2C [Tipifarnib] + COc1cccc2cc(-c3nc([C@H]4CC[C@H](C(=O)O)CC4)n4ncnc(N)c34)[nH]c12 [OSI-027] (partner 0.5 µM)
Summary of the method: as §1

Tipifarnib + Lapatinib = compound: Cn1cncc1[C@@](N)(c1ccc(Cl)cc1)c1ccc2c(c1)c(-c1cccc(Cl)c1)cc(=O)n2C [Tipifarnib] + CS(=O)(=O)CCNCc1ccc(-c2ccc3ncnc(Nc4ccc(OCc5cccc(F)c5)c(Cl)c4)c3c2)o1 [Lapatinib] (partner 2 µM)
Summary of the method: as §1

Tipifarnib + Linsitinib = compound: Cn1cncc1[C@@](N)(c1ccc(Cl)cc1)c1ccc2c(c1)c(-c1cccc(Cl)c1)cc(=O)n2C [Tipifarnib] + C[C@]1(O)C[C@@H](c2nc(-c3ccc4ccc(-c5ccccc5)nc4c3)c3c(N)nccn32)C1 [Linsitinib] (partner 1 µM)
Summary of the method: as §1

Cell Line | relative viability (Tipifarnib + Luminespib; first compound 0.01 µM) | relative viability (Tipifarnib + Luminespib; first compound 0.03162 µM) | relative viability (Tipifarnib + Luminespib; first compound 0.1 µM) | relative viability (Tipifarnib + Luminespib; first compound 0.3162 µM) | relative viability (Tipifarnib + Luminespib; first compound 1 µM) | relative viability (Tipifarnib + OSI-027; first compound 0.01 µM) | relative viability (Tipifarnib + OSI-027; first compound 0.03162 µM) | relative viability (Tipifarnib + OSI-027; first compound 0.1 µM) | relative viability (Tipifarnib + OSI-027; first compound 0.3162 µM) | relative viability (Tipifarnib + OSI-027; first compound 1 µM) | relative viability (Tipifarnib + Lapatinib; first compound 0.01 µM) | relative viability (Tipifarnib + Lapatinib; first compound 0.03162 µM) | relative viability (Tipifarnib + Lapatinib; first compound 0.1 µM) | relative viability (Tipifarnib + Lapatinib; first compound 0.3162 µM) | relative viability (Tipifarnib + Lapatinib; first compound 1 µM) | relative viability (Tipifarnib + Linsitinib; first compound 0.01 µM) | relative viability (Tipifarnib + Linsitinib; first compound 0.03162 µM) | relative viability (Tipifarnib + Linsitinib; first compound 0.1 µM) | relative viability (Tipifarnib + Linsitinib; first compound 0.3162 µM) | relative viability (Tipifarnib + Linsitinib; first compound 1 µM)
H3255 | 1.13 | 0.873 | 0.846 | 0.654 | 0.53 | 0.757 | 0.704 | 0.61 | 0.471 | 0.438 | 0.249 | 0.3 | 0.27 | 0.232 | 0.214 | 1.06 | 0.895 | 0.916 | 0.591 | 0.684
EPLC-272H | 0.196 | 0.267 | 0.233 | 0.378 | 0.173 | 0.276 | 0.229 | 0.247 | 0.267 | 0.212 | 1.02 | 0.88 | 0.761 | 0.64 | 0.216 | 1.17 | 1.16 | 1.21 | 0.83 | 0.531
PC-3 [JPC-3] | 0.74 | 0.694 | 0.66 | 0.458 | 0.409 | 0.751 | 0.67 | 0.598 | 0.343 | 0.324 | 0.461 | 0.489 | 0.431 | 0.38 | 0.311 | 0.956 | 0.899 | 0.872 | 0.769 | 0.736
NCI-H1793 | 0.23 | 0.173 | 0.196 | 0.134 | 0.138 | 0.254 | 0.326 | 0.204 | 0.215 | 0.216 | 0.882 | 0.691 | 0.742 | 0.381 | 0.52 | 0.983 | 0.577 | 0.737 | 0.751 | 0.576
EKVX | 0.95 | 0.856 | 0.41 | 0.776 | 0.496 | 0.728 | 0.7 | 0.699 | 0.516 | 0.39 | 0.202 | 0.21 | 0.185 | 0.189 | 0.17 | 1.06 | 1.11 | 0.972 | 0.755 | 0.657
ChaGo-K-1 | 0.669 | 0.558 | 0.454 | 0.505 | 0.389 | 0.483 | 0.548 | 0.602 | 0.442 | 0.332 |  |  |  |  |  |  |  |  |  | 
NCI-H23 | 0.243 | 0.242 | 0.223 | 0.199 | 0.24 | 0.583 | 0.384 | 0.342 | 0.29 | 0.26 | 1.4 | 0.949 | 0.717 | 0.439 | 0.23 | 0.747 | 0.573 | 0.44 | 0.331 | 0.39
EMC-BAC-2 | 1.27 | 0.907 | 0.974 | 0.847 | 0.752 | 0.365 | 0.3 | 0.364 | 0.3 | 0.266 | 0.897 | 0.854 | 0.771 | 0.718 | 0.351 | 0.855 | 0.798 | 0.689 | 0.706 | 0.636
LOU-NH91 | 0.321 | 0.336 | 0.323 | 0.322 | 0.323 | 0.698 | 0.589 | 0.5 | 0.485 | 0.467 | 0.794 | 0.658 | 0.675 | 0.669 | 0.499 | 0.937 | 0.819 | 0.838 | 0.736 | 0.691
LU99A | 0.343 | 0.22 | 0.241 | 0.207 | 0.233 | 0.242 | 0.229 | 0.224 | 0.238 | 0.236 | 0.663 | 0.583 | 0.461 | 0.448 | 0.275 | 0.563 | 0.477 | 0.299 | 0.257 | 0.272
NCI-H1395 | 0.776 | 0.72 | 0.711 | 0.446 | 0.452 | 0.622 | 0.545 | 0.494 | 0.517 | 0.413 | 1.03 | 0.85 | 0.82 | 0.68 | 0.48 | 1.43 | 1.14 | 0.888 | 0.869 | 0.783
NCI-H460 | 0.0293 | 0.0319 | 0.0244 | 0.0236 | 0.0186 | 0.669 | 0.626 | 0.257 | 0.209 | 0.0157 | 0.987 | 0.431 | 0.285 | 0.195 | 0.0315 | 0.841 | 0.639 | 0.173 | 0.146 | 0.0526
201T | 1.05 | 1.06 | 0.991 | 0.972 | 0.938 | 0.706 | 0.805 | 0.692 | 0.46 | 0.368 | 0.988 | 1.05 | 0.965 | 0.947 | 0.866 | 1.04 | 1.04 | 0.989 | 0.949 | 1.07
NCI-H1944 | 0.641 | 0.657 | 0.363 | 0.372 | 0.393 | 0.419 | 0.324 | 0.307 | 0.247 | 0.263 | 0.854 | 0.622 | 0.599 | 0.444 | 0.342 | 1.3 | 1 | 1.09 | 0.644 | 0.737
NCI-H2405 | 0.71 | 0.584 | 0.525 | 0.606 | 0.527 | 0.673 | 0.641 | 0.629 | 0.599 | 0.474 | 1.06 | 0.942 | 0.949 | 0.878 | 0.625 | 0.952 | 0.885 | 0.845 | 0.821 | 0.79
NCI-H1703 |  |  |  |  |  |  |  |  |  |  | 0.78 | 0.706 | 0.253 | 0.319 | 0.417 | 0.84 | 0.323 | 0.145 | 0.274 | 0.373
NCI-H1755 | 0.516 | 0.475 | 0.516 | 0.545 | 0.201 | 0.75 | 0.603 | 0.677 | 0.622 | 0.452 | 1.03 | 0.988 | 0.981 | 0.906 | 0.507 | 0.995 | 0.957 | 0.928 | 0.913 | 0.897
